Read-outs that look alike come from different tables or passages of the source.
Columns and labels:
[1] = target: T1, full length N-terminally FLAG-tagged PARP1 (Homo sapiens, UniProt P09874); assay: PARP1 biochemical DELFIA assay (auto-PARylation); set-up: recombinant full length human N-terminally FLAG-tagged PARP1
[2] = target: T1, full length N-terminally FLAG-tagged PARP1; assay: PARP1 probe displacement HTRF assay; details: for Selectivity: PARP1 over PARP2, ratio Kd (PARP2)/Kd (PARP1); for Kd: binned Kd
[3] = target: T2, N-terminally FLAG-tagged PARP2 (amino acids 1-583) (Homo sapiens, UniProt Q9UGN5); assay: PARP2 probe displacement HTRF assay; assay type: binding; details: binned Kd
T2 construct: N-terminally FLAG-tagged PARP2 (amino acids 1-583)
T2 sequence (Q9UGN5 whole entry, the tested form may be a part): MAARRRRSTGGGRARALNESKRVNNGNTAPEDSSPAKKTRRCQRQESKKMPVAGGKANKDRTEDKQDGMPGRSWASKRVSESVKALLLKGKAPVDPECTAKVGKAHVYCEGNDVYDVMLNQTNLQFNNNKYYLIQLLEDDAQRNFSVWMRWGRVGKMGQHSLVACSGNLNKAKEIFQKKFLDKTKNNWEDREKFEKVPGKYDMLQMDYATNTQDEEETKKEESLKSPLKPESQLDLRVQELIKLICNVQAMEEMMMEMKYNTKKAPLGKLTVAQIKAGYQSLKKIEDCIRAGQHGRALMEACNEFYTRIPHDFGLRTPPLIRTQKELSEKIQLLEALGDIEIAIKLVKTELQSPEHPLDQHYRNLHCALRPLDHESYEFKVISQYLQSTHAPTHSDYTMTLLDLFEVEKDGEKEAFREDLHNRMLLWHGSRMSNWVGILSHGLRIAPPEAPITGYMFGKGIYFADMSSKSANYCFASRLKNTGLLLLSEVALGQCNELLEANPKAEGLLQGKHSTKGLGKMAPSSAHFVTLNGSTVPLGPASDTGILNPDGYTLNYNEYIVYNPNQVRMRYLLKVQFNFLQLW
Protocol: Data analysis was performed identical as for PARP1.

[4] = binned IC50, biochemical auto-PARylation assay
[5] = read-out: PARP1 HTRF, probe displacement HTRF
[6] = binned IC50, PARP1 biochemical DELFIA assay
[7] = PARP1 HTRF, PARP1 probe displacement HTRF
[8] = PARP1 HTRF, probe displacement HTRF

T1 sequence (P09874 whole entry): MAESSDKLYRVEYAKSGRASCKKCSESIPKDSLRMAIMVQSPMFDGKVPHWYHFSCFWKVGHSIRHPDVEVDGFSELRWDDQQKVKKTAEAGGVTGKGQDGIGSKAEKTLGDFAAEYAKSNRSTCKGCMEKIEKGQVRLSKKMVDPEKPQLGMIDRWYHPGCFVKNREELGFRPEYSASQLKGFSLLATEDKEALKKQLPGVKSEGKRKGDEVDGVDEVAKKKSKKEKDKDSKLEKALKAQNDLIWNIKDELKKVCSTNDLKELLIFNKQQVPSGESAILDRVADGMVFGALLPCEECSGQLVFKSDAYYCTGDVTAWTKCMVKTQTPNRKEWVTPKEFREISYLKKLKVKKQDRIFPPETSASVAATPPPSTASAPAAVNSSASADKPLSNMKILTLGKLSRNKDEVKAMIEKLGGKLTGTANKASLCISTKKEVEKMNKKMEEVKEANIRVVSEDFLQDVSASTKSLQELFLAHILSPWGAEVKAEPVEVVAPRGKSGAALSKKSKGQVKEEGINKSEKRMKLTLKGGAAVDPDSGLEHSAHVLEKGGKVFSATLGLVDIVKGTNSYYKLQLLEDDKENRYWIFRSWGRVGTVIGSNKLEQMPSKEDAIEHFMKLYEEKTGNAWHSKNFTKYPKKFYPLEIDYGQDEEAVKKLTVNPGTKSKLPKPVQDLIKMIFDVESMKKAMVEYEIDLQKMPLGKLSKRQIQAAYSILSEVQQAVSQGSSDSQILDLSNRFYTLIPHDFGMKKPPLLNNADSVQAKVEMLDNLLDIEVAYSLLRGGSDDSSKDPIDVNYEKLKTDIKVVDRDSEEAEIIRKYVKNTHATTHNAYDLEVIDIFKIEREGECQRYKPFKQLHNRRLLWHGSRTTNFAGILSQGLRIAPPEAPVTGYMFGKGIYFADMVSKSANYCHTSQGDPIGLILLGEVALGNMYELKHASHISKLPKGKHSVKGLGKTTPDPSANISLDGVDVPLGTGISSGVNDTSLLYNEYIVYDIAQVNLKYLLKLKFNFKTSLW

IC50 [1, 4] [nM]	Kd [2, 5] [nM]	Kd ([3]; probe displacement HTRF) [nM]	IC50 [1, 6] [nM]	Kd [2, 7] [nM]	Kd ([3]; PARP2 probe displacement HTRF) [nM]	Kd [2, 8] [nM]	SMILES	Selectivity ([2]; probe displacement HTRF)
< 10	< 10	100 to 1000	–	–	–	–	CCc1ccc(C2CCN(C3CCN(c4cnc(C(=O)NC5CC5)c(F)c4)CC3)C2)[nH]c1=O (single isomer, unassigned) [Compound 408a]	+++ (+++ indicate a value of at least 100)
10 to 100	10 to 100	1000 to 10000	–	–	–	–	CCc1ccc(C2CCN(C3CCN(c4cnc(C(=O)NC5CC5)c(F)c4)CC3)C2)[nH]c1=O (single isomer, unassigned) [Compound 408b]	+ (+ indicates a value of 10 to less than 50)
< 10	< 10	1000 to 10000	–	–	–	–	CCc1ccc(C2CCN(C3CCN(c4ccc(C(=O)NC5CC5)nc4C#N)CC3)C2)[nH]c1=O (single isomer, unassigned) [Compound 409a]	+++ (+++ indicate a value of at least 100)
< 10	< 10	100 to 1000	–	–	–	–	CCc1ccc(C2CCN(C3CCN(c4ccc(C(=O)NC5CC5)nc4C#N)CC3)C2)[nH]c1=O (single isomer, unassigned) [Compound 409b]	+++ (+++ indicate a value of at least 100)
< 10	< 10	100 to 1000	–	–	–	–	N#Cc1nc(C(=O)NC2CC2)ccc1N1CCC(N2CCC(c3cc4cccc(F)c4c(=O)[nH]3)C2)CC1 (single isomer, unassigned) [Compound 410a]	+++ (+++ indicate a value of at least 100)
< 10	< 10	100 to 1000	–	–	–	–	N#Cc1nc(C(=O)NC2CC2)ccc1N1CCC(N2CCC(c3cc4cccc(F)c4c(=O)[nH]3)C2)CC1 (single isomer, unassigned) [Compound 410b]	+++ (+++ indicate a value of at least 100)
–	–	–	1000 to 10000	100 to 1000	> 10000	–	CNC(=O)c1ccc(N2CCC(C(=O)N3CCC(c4ncc(C(F)(F)F)c(=O)[nH]4)CC3)CC2)cn1 [Compound 59]	− (− indicates a value of less than 10)
–	–	–	< 10	10 to 100	1000 to 10000	–	CNC(=O)c1ccc(OCCN2CCC(c3nc4ccccc4c(=O)[nH]3)CC2)cn1 [Compound 63]	++ (++ indicates a value of 50 to less than 100)
–	–	–	10 to 100	10 to 100	1000 to 10000	–	CNC(=O)c1ccc(N2CCC(CN3CC4(c5nc6ccccc6c(=O)[nH]5)CC3C4)CC2)cn1 [Compound 193]	+++ (+++ indicate a value of at least 100)
< 10	–	100 to 1000	–	–	–	< 10	CNC(=O)c1ccc(N2CCC(N3CC4(c5nc6cccc(F)c6c(=O)[nH]5)CC3C4)CC2)cn1 [Compound 227]	+++ (+++ indicate a value of at least 100)
< 10	–	100 to 1000	–	–	–	< 10	CNC(=O)c1ccc(N2CCC(N3CC4(c5nc6ccc(F)cc6c(=O)[nH]5)CC3C4)CC2)cn1 [Compound 238]	+++ (+++ indicate a value of at least 100)
< 10	–	> 10000	–	–	–	< 10	CNC(=O)c1ccc(N2CCC(N3CC4(c5nc6ccccc6c(=O)[nH]5)CC3(CO)C4)CC2)cn1 [Compound 284]	+++ (+++ indicate a value of at least 100)
< 10	–	> 10000	–	–	–	< 10	CNC(=O)c1ccc(N2CCC(N3CC4(c5nc6ncccc6c(=O)[nH]5)CC3C4)CC2)c(F)n1 [Compound 303]	+++ (+++ indicate a value of at least 100)
< 10	–	> 10000	–	–	–	10 to 100	CNC(=O)c1ccc(N2CCC(N3CC4(c5nc6ccncc6c(=O)[nH]5)CC3C4)CC2)cn1 [Compound 304]	+++ (+++ indicate a value of at least 100)
10 to 100	–	> 10000	–	–	–	< 10	CCc1cnc(C23CC(C2)N(C2CCN(c4ccc(C(=O)NC)nc4C(F)(F)F)CC2)C3)[nH]c1=O [Compound 310]	+++ (+++ indicate a value of at least 100)
< 10	–	1000 to 10000	–	–	–	< 10	CNC(=O)c1ccc(N2CCC(N3CC4(c5nc6ncccc6c(=O)[nH]5)CC3C4)CC2)cn1 [Compound 311]	+++ (+++ indicate a value of at least 100)
< 10	–	100 to 1000	–	–	–	< 10	CNC(=O)c1ccc(N2CCC(N3CC4(c5nc6c(c(=O)[nH]5)CCCC6)CC3C4)CC2)cn1 [Compound 361, N-methyl-5-(4-(4-(4-oxo-3,4,5,6,7,8-hexahydroquinazolin-2-yl)-2-azabicyclo[2.1.1]hexan-2-yl)piperidin-1-yl)picolinamide]	+++ (+++ indicate a value of at least 100)
< 10	–	> 10000	–	–	–	< 10	CNC(=O)c1ccc(N2CCC(N3CC4(c5nc6ncc(F)cc6c(=O)[nH]5)CC3C4)CC2)cn1 [Compound 368]	+++ (+++ indicate a value of at least 100)
< 10	–	1000 to 10000	–	–	–	< 10	CNC(=O)c1ccc(N2CCC(N3CC4(c5nc6ncc(F)cc6c(=O)[nH]5)CC3C4)CC2)c(F)n1 [Compound 369]	+++ (+++ indicate a value of at least 100)

The next lines start with the compound.

SMILES	IC50 [1, 4] [nM]	Kd [2, 5] [nM]	Kd ([3]; probe displacement HTRF) [nM]	IC50 [1, 6] [nM]	Kd [2, 7] [nM]	Kd ([3]; PARP2 probe displacement HTRF) [nM]	Kd [2, 8] [nM]	Selectivity ([2]; probe displacement HTRF)
CNC(=O)c1ccc(OCCCN2CCC(c3nc4ccccc4c(=O)[nH]3)CC2)cn1 [Compound 2, N-methyl-5-(3-(4-(4-oxo-3,4-dihydroquinazolin-2-yl)piperidin-1-yl)propoxy)picolinamide]	–	–	–	< 10	< 10	1000 to 10000	–	+++ (+++ indicate a value of at least 100)
CNC(=O)c1ccc(N2CCC(CN3CCC(c4nc5ccccc5c(=O)[nH]4)CC3)CC2)cn1 [Compound 8, N-methyl-5-(4-((4-(4-oxo-3,4-dihydroquinazolin-2-yl)piperidin-1-yl)methyl)piperidin-1-yl)picolinamide]	–	–	–	< 10	< 10	> 10000	–	+++ (+++ indicate a value of at least 100)
CNC(=O)c1ccc(N2CCC(n3cc(-c4nc5ccccc5c(=O)[nH]4)cn3)CC2)cn1 [Compound 17, N-methyl-5-(4-(4-(4-oxo-3,4-dihydroquinazolin-2-yl)-1H-pyrazol-1-yl)piperidin-1-yl)picolinamide]	–	–	–	10 to 100	10 to 100	> 10000	–	+++ (+++ indicate a value of at least 100)
CCc1cnc(-c2cnn(C3CCN(c4ccc(C(=O)NC)nc4)CC3)c2)[nH]c1=O [Compound 20]	–	–	–	10 to 100	10 to 100	> 10000	–	++ (++ indicates a value of 50 to less than 100)
CNC(=O)c1ccc(N2CCC(N3CC(c4nc5ccccc5c(=O)[nH]4)C3)CC2)cn1 [Compound 27]	–	–	–	10 to 100	10 to 100	1000 to 10000	–	+ (+ indicates a value of 10 to less than 50)
CNC(=O)c1ccc(N2CCC(C(=O)N3CCC(c4nc5ccccc5c(=O)[nH]4)CC3)CC2)cn1 [Compound 36]	–	–	–	< 10	< 10	> 10000	–	+++ (+++ indicate a value of at least 100)
CNC(=O)c1ccc(N2CCC(CN3CCC(c4nc5c(Cl)cccc5c(=O)[nH]4)CC3)CC2)cn1 [Compound 40, 5-(4-((4-(8-chloro-4-oxo-3,4-dihydroquinazolin-2-yl)piperidin-1-yl)methyl)piperidin-1-yl)-N-methylpicolinamide]	–	–	–	< 10	< 10	100 to 1000	–	++ (++ indicates a value of 50 to less than 100)
CCc1cnc(C2CCN(C(=O)C3CCN(c4ccc(C(=O)NC)nc4)CC3)CC2)[nH]c1=O [Compound 41]	–	–	–	100 to 1000	100 to 1000	> 10000	–	+ (+ indicates a value of 10 to less than 50)
CNC(=O)c1ccc(N2CC(CN3CCC(c4nc5ccccc5c(=O)[nH]4)CC3)C2)cn1 [Compound 45]	–	–	–	< 10	< 10	100 to 1000	–	+++ (+++ indicate a value of at least 100)
CCc1ccc(C2CCN(CC3CCN(c4ccc(C(=O)NC)nc4)CC3)CC2)[nH]c1=O [Compound 47]	–	–	–	100 to 1000	100 to 1000	> 10000	–	− (− indicates a value of less than 10)
CNC(=O)c1ccc(N2CC(N3CCC(Cc4nc5ccccc5c(=O)[nH]4)CC3)C2)cn1 [Compound 48]	–	–	–	< 10	< 10	100 to 1000	–	+++ (+++ indicate a value of at least 100)
CNC(=O)c1ccc(N2CCC(N3CCC(Cc4nc5ccccc5c(=O)[nH]4)CC3)CC2)cn1 [Compound 54, N-methyl-5-(4-{4-[(4-oxo-3H-quinazolin-2-yl)methyl]piperidin-1-yl}piperidin-1-yl)pyridine-2-carboxamide]	–	–	–	< 10	< 10	100 to 1000	–	+++ (+++ indicate a value of at least 100)
CNC(=O)c1ccc(N2CCC(N3CC4CC(c5nc6ccccc6c(=O)[nH]5)(C4)C3)CC2)cn1 [Compound 168]	–	–	–	< 10	< 10	> 10000	–	+++ (+++ indicate a value of at least 100)
CNC(=O)c1ccc(N2CCC(N3CC4(c5nc6ccncc6c(=O)[nH]5)CC3C4)CC2)c(F)n1 [Compound 305]	< 10	–	> 10000	–	–	–	< 10	+++ (+++ indicate a value of at least 100)

From US20250152585A1, “PHARMACEUTICAL COMPOUND” (Duke Street Bio Limited, priority 2022, published 2025)
